What all share (assay): relative viability (nuclei count vs DMSO), 5 days (fraction); higher = more cells survive
Compound in the assay “Pictilisib + Trametinib”: CS(=O)(=O)N1CCN(Cc2cc3nc(-c4cccc5[nH]ncc45)nc(N4CCOCC4)c3s2)CC1 [Pictilisib] + CC(=O)Nc1cccc(-n2c(=O)n(C3CC3)c(=O)c3c(Nc4ccc(I)cc4F)n(C)c(=O)c(C)c32)c1 [Trametinib] (partner 0.02 µM)
Put shortly: (§1)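 Each reported value is a median over duplicate plates. It expresses relative viability: treated-well nuclei count divided by vehicle-well nuclei count. Lung cancer cell lines in 1536-well plates were dosed by pin tool a day after seeding, alone with one drug or with a fixed anchor-drug dose plus five library-drug doses (not always all listed) in √10 steps, and nuclei were counted after 5 days.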

Compound in the assay “Pictilisib + Luminespib”: CS(=O)(=O)N1CCN(Cc2cc3nc(-c4cccc5[nH]ncc45)nc(N4CCOCC4)c3s2)CC1 [Pictilisib] + CCNC(=O)c1noc(-c2cc(C(C)C)c(O)cc2O)c1-c1ccc(CN2CCOCC2)cc1 [Luminespib] (partner 0.01 µM)
Put shortly: as §1

Compound in the assay “Pictilisib + Vorinostat”: CS(=O)(=O)N1CCN(Cc2cc3nc(-c4cccc5[nH]ncc45)nc(N4CCOCC4)c3s2)CC1 [Pictilisib] + O=C(CCCCCCC(=O)Nc1ccccc1)NO [Vorinostat] (partner 1 µM)
The method in brief: as §1

Compound in the assay “MK-2206 + Pictilisib”: NC1(c2ccc(-c3nc4ccn5c(=O)[nH]nc5c4cc3-c3ccccc3)cc2)CCC1 [MK-2206] + CS(=O)(=O)N1CCN(Cc2cc3nc(-c4cccc5[nH]ncc45)nc(N4CCOCC4)c3s2)CC1 [Pictilisib] (partner 1 µM)
The method in brief: as §1

Compound in the assay “MK-2206 + Pemetrexed”: NC1(c2ccc(-c3nc4ccn5c(=O)[nH]nc5c4cc3-c3ccccc3)cc2)CCC1 [MK-2206] + Nc1nc2[nH]cc(CCc3ccc(C(=O)N[C@@H](CCC(=O)O)C(=O)O)cc3)c2c(=O)[nH]1 [Pemetrexed] (partner 0.2 µM)
Put shortly:
as §1

As to UMC-11, the relative viability with Pictilisib + Trametinib (first compound 0.02 µM) is 0.671; in the assay with Pictilisib + Trametinib (first compound 0.06325 µM) it was 0.872; with Pictilisib + Trametinib (first compound 0.6325 µM), 0.735; in the assay with Pictilisib + Trametinib (first compound 2 µM), 0.674; with Pictilisib + Luminespib (first compound 0.02 µM), 1.02; with Pictilisib + Luminespib (first compound 0.06325 µM), 1.15. Further, the relative viability with Pictilisib + Luminespib (first compound 0.6325 µM) was determined as 1.09; with Pictilisib + Luminespib (first compound 2 µM), 0.988; in the assay with Pictilisib + Vorinostat (first compound 0.02 µM) it was 0.366; with Pictilisib + Vorinostat (first compound 0.06325 µM) it was 0.414; with Pictilisib + Vorinostat (first compound 0.6325 µM), 0.464; in the assay with Pictilisib + Vorinostat (first compound 2 µM) it was 0.354. In addition, the relative viability was 0.762 in the assay with MK-2206 + Pictilisib (first compound 0.01 µM); 0.821 with MK-2206 + Pictilisib (first compound 0.03162 µM); 0.837 with MK-2206 + Pictilisib (first compound 0.3162 µM); 0.616 in the assay with MK-2206 + Pictilisib (first compound 1 µM); 0.862 in the assay with MK-2206 + Pemetrexed (first compound 0.01 µM); 0.763 in the assay with MK-2206 + Pemetrexed (first compound 0.03162 µM). Besides, the relative viability worked out at 0.836 in the assay with MK-2206 + Pemetrexed (first compound 0.3162 µM) and 0.791 with MK-2206 + Pemetrexed (first compound 1 µM).

For the origin of these results see the supplement of paper PMC10307832.
